Earlier results on four molecules are cited in patent US12011496B2, “Topical macqui berry formulation” (Tracie Martyn International, Inc., priority 2005, dated 2024).

As a reminder, the IC50 is the concentration needed to halve the response being measured.

For data set [1] the following is noted: animal studies.
For data set [2] the following is noted: antioxidant properties.
The conditions of data set [3]: using only natural ingredients (botanicals, antioxidants, coffe oil and microfine zinc oxide).

For the molecule `NCCC(=O)N[C@@H](Cc1cnc[nH]1)C(=O)O` [Carnosine, β-alanyl-L-histidine], the “safety at dosages above 500 mg/kg body weight” value in data set [1] is given as “safe”. On to `O=C(/C=C/c1ccc(O)c(O)c1)O[C@H](Cc1ccc(O)c(O)c1)C(=O)O` [Rosmarinic acid], for which the IC50 in data set [2] was 740 nM. For the molecule `COc1ccc(C=CC(=O)OCCC(C)C)cc1` [isoamyl-p-methoxycinnamate], the spf result in data set [3] is listed as “greater than 30”. On to `C=CCc1cc(OC)c2c(c1)OCO2` [myristicin, 3-methoxy,4,5-methylendioxy-allylbenzene], for which the oral psychotropic dose is recorded as 400 mg.
